{
  "source": "patent US20110177002A1",
  "about": "“CYLIC POLYAMINES FOR BINDING PHOSPHATIDYLSERINE” (BAYER SCHERING PHARMA AKTIENGESELLSCHAFT, priority 2008, published 2011)",
  "key": {"[1]": {"conditions": "Zn^2+ complexation; cited from earlier work"}, "[2]": {"system": "apoptotic liver", "test": "Biodistribution after induction of hepatic apoptosis with Cycloheximid", "format": "in vivo, male Balb/c mice", "conditions": "i.v., 3.5 h after induction of hepatic apoptosis", "description": "The biodistribution was performed in male Balb/c mice (6-8 weeks, body weight approx. 20 g). Hepatic apoptosis were induced by intraperitoneal injection of Cycloheximid ([…] in 500 μL PBS) (J. F. Tait, C. Smith, Z. Levashova, B. Patel, F. G. Blankenberg, J. Vanderheyden, J. Nucl. Med. 2006, 47, 1546). 1.5 h and 3.5 h after induction of hepatic apoptosis the 18F-labeled compound was injected i.v. (1-2 MBq in 100 μL PBS). The organ distribution was done after 30 min, 1 h, 2 h and 3 h. The amount of 18F-compound was determined by gamma counter."}, "[3]": {"system": "adenocarcinoma (Prostata) R3327-ATI", "test": "PET imaging in radiation tumor model", "format": "in vivo, Male Copenhagen rats", "conditions": "day 6 and day 10 after 50 Gy radiation, i.v.", "excerpt": "The PET images were obtained using a radiation model. Male Copenhagen rats with approx. 180 g body weight were transplanted with the hormone independent adenocarcinoma (Prostata) R3327-ATI on the left and right upper leg. The left tumor, as it reached a size of 3.5 cm^3 was radiated by linear particle accelerator with a single dosis of 50 Gy, whereas the right tumor served as control.\nOne day prior to the radiation as well as 6 and 10 d after radiation, the 18F-compound 19 (15-25 MBq in ca. 200 μL PBS) was injected i.v. and PET-aquisition with 1 h dynamic PET measurements were performed."}, "[4]": {"system": "Jurkat cells induced with staurosporin", "test": "Confocal microscopy on apoptosis induced Jurkat cells", "format": "cell-based", "conditions": "5 μM compound, 15 min at RT", "description": "In order to verify the FACS data with visual data confocal microscopy was performed. Confocal microscopy was also performed on Jurkat cells and apoptosis was induced by incubating 10^6 cells/ml in 1 μM staurosporin for 4 h (Stepczynska A et al, Staurosporine and conventional anticancer drugs induce overlapping, yet distinct pathways of apoptosis and caspase activation Oncogene (2001) 20, 1193). The experiments were also carried out in TES-buffer. For compound binding 10^6 cells (either induced with staurosporin or non-induced) were incubated for 15 min at RT in 100 μl cold TES buffer with a final concentration of 5 μM compound, then the cells were fixed onto polylysine coated slides and shortly incubated with propidium iodine (PI)."}, "[5]": {"system": "staurosporine treated Jurkat cells", "test": "FACS flow cytometry, apoptosis detection on staurosporine treated Jurkat cells with propidium iodide discrimination", "format": "cell-based", "conditions": "for labeling pattern in direct comparison with Annexin-V: apoptosis induced Jurkat cells, co-incubation, FIG. 10", "excerpt": "Flow cytometry is a technology for counting and examining cells which pass in a flow of single cells through a laser beam. The laser light scatter provides information about cell features. The forward scatter (FSC) depends basically on the size of the cell, whereas the side scatter (SSC) is used to measure the granularity of the cell. Furthermore, if the cells carry fluorescence dyes, the respective fluorescence signal can be detected.\nFlow cytometry is a widely applied technique in cell biology. Especially in the research of cell death mechanisms it is a standard procedure to count and differentiate between apoptotic, necrotic and healthy cells. For the detection of apoptosis the protein Annexin V is applied which is usually attached to a green fluorescence dye. Because Annexin V can also bind to necrotic cells, the red fluorescent nuclear stain propidium iodide is simultaneously applied as a necrosis marker.\nThe resulting fluorescence diagrams that are obtained from a flow cytometry procedure with Annexin V and propidium iodide are shown below. The detection channel for green fluorescence is termed FL-I (FIG. 4), the one for red fluorescence FL-III (FIG. 4). The plot of cell number (counts) versus FL-I intensity is called histogram. The fluorescence signal of the sample is always accompanied by a second signal at low intensities (left in the histogram) which is background fluorescence. By plotting the red fluorescence versus the green fluorescence (FL-I/FL-III-plot) a diagram is obtained in which the cells can be divided into red, green and red+green fluorescent cells. After gating the signals into four quadrant regions (Q1-Q4) (FIG. 4), the percentages of the differently stained cells is indicated in the diagram.\nFACS measurements were performed with a DAKO Galaxy Flow Cytometry System using the following experimental setup: Jurkat-cells were grown to a density of about 1*10^6 cells/ml. Apoptosis was induced by adding 1 μmol/l staurosporine (Stepczynska A et al, Staurosporine and conventional anticancer drugs induce overlapping, yet distinct pathways of apoptosis and caspase activation, Oncogene (2001) 20, 1193). After incubation for 4 h at 37° C., the cells were washed with cold PBS-buffer (140 mmol/l NaCl, 10 mmol/l KCl, 6.4 mmol/l Na2HPO4, 2 mmol/l KH2PO4) and resuspended in cold TES-buffer (5 mmol/l TES, 145 mmol/l NaCl). 10^6 cells in 100 μl buffer with 1 μl of a 0.5 mmol/l aqueous solution of complex 1 were incubated for 15 minutes at 37° C. Subsequently, cells were washed twice with 500 μl TES-buffer and the cells were resuspended in 400 μl TES-buffer. 100 μl of the probe were diluted with 900 μl of buffer and measured immediately. To discriminate against necroses, 10 μl propidiumiodide solution (250 μg/ml) were added directly before the measurement."}, "[6]": {"system": "cells which expose phosphatidylserine", "conditions": "cited from earlier work"}},
  "data": [
    {"compound": "c1ccc(CNCc2ccccn2)nc1", "note": "[DPA, 2,2-dipicolylamine]", "values": [
      {"measurement": "stability constant", "setting": "[1]", "result": "10^5 (mol/l)^−1"}
    ]},
    {"compound": "[18F]CCOc1cc(CN2CCNCCNCCNCC2)cc(CN2CCNCCNCCNCC2)c1", "note": "[compound 19]", "values": [
      {"measurement": "time the liver signal was stable", "setting": "[2]", "result": "more than 3 h"},
      {"measurement": "accumulation in the apoptotic liver", "setting": "[2]; as early as 30 min after injection", "result": "accumulation in the apoptotic liver"},
      {"measurement": "accumulation in irradiated tumor in comparison to the control tumor (PET)", "setting": "[3]", "result": "increase in accumulation"}
    ]},
    {"compound": "CCN(CC)c1ccc2c(-c3ccc(NC(=S)NCCOCCOCCOc4cc(CN5CCNCCNCCNCC5)cc(CN5CCNCCNCCNCC5)c4)cc3C(=O)O)c3ccc(=[N+](CC)CC)cc-3oc2c1", "note": "[compound AB]", "values": [
      {"measurement": "uptake / labeling of cells in confocal microscopy", "setting": "[4]", "result": "labeling of apoptotic and necrotic cells"},
      {"measurement": "labeling pattern in direct comparison with Annexin-V", "setting": "[5]", "result": "labeling apoptotic cells in Q2 and necrotic cells in Q4"}
    ]},
    {"compound": "O=C(NCCOCCOCCOc1cc(COc2cc(CN3CCNCCNCCNCC3)cc(CN3CCNCCNCCNCC3)c2)cc(COc2cc(CN3CCNCCNCCNCC3)cc(CN3CCNCCNCCNCC3)c2)c1)c1ccc(-c2c3ccc(=O)cc-3oc3cc(O)ccc23)c(C(=O)O)c1", "note": "[compound we]", "values": [
      {"measurement": "median fluorescence intensity", "setting": "[5]; induced apoptotic Jurkat cells, FIG. 11", "result": 130},
      {"measurement": "effect of Zn^2+ complexation on binding", "setting": "[5]; with versus without Zn^2+", "result": "same effect"}
    ]},
    {"compound": "Anx V: phosphatidylserine-binding protein, fluorescent dye labeled, standard apoptosis sensor", "values": [
      {"measurement": "Kd", "setting": "[6]", "result": "< 0.1", "unit": "nM"},
      {"measurement": "uptake / labeling of cells in confocal microscopy", "setting": "[4]", "result": "green membrane staining"},
      {"measurement": "labeling pattern in direct comparison with Annexin-V", "setting": "[5]", "result": "labels apoptotic cells in Q1 and Q2"},
      {"measurement": "% apoptosis (green)", "setting": "[5]; staurosporine treated Jurkat cells, green fluorescence only", "result": 22, "unit": "%"},
      {"measurement": "% necrosis (PI) (red)", "setting": "[5]; staurosporine treated Jurkat cells, propidium iodide red only", "result": 18, "unit": "%"},
      {"measurement": "% necrosis/ late apoptosis (red + green)", "setting": "[5]; staurosporine treated Jurkat cells, red + green", "result": 25, "unit": "%"}
    ]}
  ]
}
